What all share (assay type): cell-based, HIV-1
One experiment relates to NL4(P34-003). Put plainly: Viral isolate resistance assay per Markowitz et al., NL4(P34-003). The conditions noted are these: Human immunodeficiency virus 1; Table 11; selected against Example 9, 34 passages. The source says: (§1) RF represents the HIV-1 strain HIV-LRF and RFR represents a mixture of resistant strains obtained by selection of RF against the compound of Example 1. RFR comprises a mixture of viral strains having protease genotypes of G48V (14/40 clones); G48V, V82A (18/40 clones); G48V, L90S (2/40 clones); G48V, 154T, V82A (1/40 clones); G48M (1/40 clones); G48V, Q61H (1/40 clones); V13I, G48V (1/40 clones); G48V, F53L, V82A (1/40 clones); and G48V, V82A, C95Y (1/40 clones). RFR2 represents a mixture of resistant strains obtained by cloning RFR by three rounds of growth at limiting dilution. RFR2 comprises a mixture of viral strains having protease genotypes of G48V, V82A (13/15 clones); G17E, G48V, V82A (1/15 clones); and G48V, V82A, N37D, N88D (1/15 clones). RFRR represents a mixture of resistant strains obtained by selection of RF against the compounds of Examples 1 and 2 and then cloning by three rounds of growth at limiting dilution. RFRR comprises a mixture of viral strains having protease genotypes of G48V, 154T, L63P, V82A (7/9 clones); G48V, 154T, L63P, V82A, N88S (1/9 clones); and G48V, 154T, L63P, G73M, V82A (1/9 clones). SF162 represents the HIV-1 strain SF-162 and SF162R represents a mixture of resistant strains obtained by selection of SF162 against the compound of Example 1. SF162R comprises a mixture of viral strains having protease genotypes of M461, F53L, L63P, A71V, N88D (2/3 clones); and M46I, F53L, L63P, A71V, N88D, Q92R (1/3 clones). 89-959 represents the HIV-1 strain 89-959 and 89-959R represents a mixture of resistant strains obtained by selection of 89-959 against the compound of Example 2. 89-959R comprises a mixture of viral strains having protease genotypes of N88S (4/5 clones); and D25N, T26A, D30N, D37N, R41K, G73D, R87K, N88S (1/4 clones). NL4 represents the HIV-1 strain HIV-1NL4-3. NL4(G48V) represents a strain having a synthetically generated site-directed mutation in the protease from glycine to valine at amino acid position number 48. […]

A further experiment has as its system NLA(P19-003). Put plainly: Viral isolate resistance assay per Markowitz et al., NLA(P19-003). The note with it: Human immunodeficiency virus 1, read-out: Virus Isolate (EC50 nM) NLA(P19-003).
Text: as §1

The test system of another experiment is NL4(R8Q,M46I). Put plainly: Viral isolate resistance assay per Markowitz et al., NL4(R8Q,M46I). The note with it: Human immunodeficiency virus 1, read-out: Virus Isolate (EC50 nM) NL4(R8O, M46I).
Text: as §1

Molecules are shown by their SMILES.

Consider `CC(C)(C)NC(=O)[C@@H]1CN(Cc2cccnc2)CCN1C[C@@H](O)C[C@@H](Cc1ccccc1)C(=O)N[C@H]1c2ccccc2C[C@H]1O` [Example 5, N-(2(R)-Hydroxy-1(S)-indanyl)-2(R)-phenylmethyl-4(S)-hydroxy-5-(1-(4-(3-pyridylmethyl)-2(S)-N′-(t-butylcarboxamido)-piperazinyl))-pentaneamide], for which the figures for the EC50 with NL4(P34-003), in the experiment with NLA(P19-003) and with NL4(R8Q,M46I) were 400 nM, 240 nM and 240 nM, respectively.

A word on the EC50: it is the midpoint of the concentration-response curve.

Values taken from US20030207813A1, “Retroviral protease inhibitor combinations” (priority 1995, published 2003).
